Measurements: US7767659B2, “Synthesis of naturally occurring ecteinascidins and related compounds” (Pharma Mar, S.A., priority 2002, dated 2010)
Where two headings read alike, the source gives them in different places.

Experiments:
[1] = system: A-549; experiment: cells; conditions: for GI50: read-out: GI50 A549; for CC50: read-out: LC50 A549; for IC (TGI): read-out: TGI A549
Description: (§1) This form of the assay employs 96 well cell culture microplates of 9 mm diameter (Faircloth, 1988; Mosmann, 1983). Most of the cell lines are obtained from American Type Culture Collection (ATCC) derived from different human cancer types.
(§2) Cells are maintained in RPMI 1640 10% FBS, supplemented with 0.1 g/l penicillin and 0.1 g/l streptomycin sulfate and then incubated at 37° C., 5% CO2 and 98% humidity. For the experiments, cells were harvested from subconfluent cultures using trypsin and resuspended in fresh medium before plating.
(§3) Cells are seeded in 96 well microtiter plates, at 5×10^3 cells per well in aliquots of 195 μl medium, and they are allowed to attach to the plate surface by growing in drug free medium for 18 hours. Afterward, samples are added in aliquots of 5 μl in a ranging from 10 to 10^−8 μg/ml, dissolved in DMSO/EtOH/PBS (0.5:0.5:99). After 48 hours exposure, the antitumor effect are measured by the SRB methodology: cells are fixed by adding 50 μl of cold 50% (wt/vol) trichloroacetic acid (TCA) and incubating for 60 minutes at 4° C. Plates are washed with deionized water and dried. One hundred μl of SRB solution (0.4% wt/vol in 1% acetic acid) is added to each microtiter well and incubated for 10 minutes at room temperature. Unbound SRB is removed by washing with 1% acetic acid. Plates are air dried and bound stain is solubilzed with Tris buffer. Optical densities are read on a automated spectrophotometric plate reader at a single wavelength of 490 nm.
(§4) The values for mean +/− SD of data from triplicate wells are calculated. Some parameters for cellular responses can be calculated: GI=growth inhibition, TGI=total growth inhibition (cytostatic effect) and LC=cell killing (cytotoxic effect).

[2] = system: HT-29; experiment: cells; conditions: for GI50: read-out: GI50 HT29; for CC50: read-out: LC50 HT29; for IC (TGI): read-out: TGI HT29
Description: as §1, §2, §3, §4

## C=CCOc1c(C)c2c(c3c1CC1[C@H]4c5c(cc(C)c(OC)c5O)C[C@@H]([C@H](C#N)N1[C@H]3CO[Si](c1ccccc1)(c1ccccc1)C(C)(C)C)N4C)OCO2 (stereo partly drawn) [compound 3]
[1]; Homo sapiens, A549, 48 h
  GI50: 4.18 µM
  CC50: 13.2 µM
  IC (TGI): 13 µM
[2]; Homo sapiens, HT-29, 48 h
  GI50: 4.01 µM
  CC50: 13.2 µM
  IC (TGI): 12.3 µM

## C=CCOc1c(C)c2c(c3c1CC1[C@H]4c5c(cc(C)c(OC)c5OCOCCOC)C[C@@H]([C@H](C#N)N1[C@H]3CO[Si](c1ccccc1)(c1ccccc1)C(C)(C)C)N4C)OCO2 (stereo partly drawn) [compound 4]
[1]; Homo sapiens, A549, 48 h
  GI50: 2.36 µM
  CC50: 11.8 µM
  IC (TGI): 8.27 µM
[2]; Homo sapiens, HT-29, 48 h
  GI50: 0.591 µM
  CC50: 11.8 µM
  IC (TGI): 1.18 µM

## C=CCOc1c(C)c2c(c3c1CC1[C@@H]4N[C@@H](Cc5cc(C)c(OC)c(OCOCCOC)c54)[C@H](C#N)N1[C@H]3CO[Si](c1ccccc1)(c1ccccc1)C(C)(C)C)OCO2 (stereo partly drawn) [compound 5]
[1]; Homo sapiens, A549, 48 h
  GI50: 0.721 µM
  CC50: 8.41 µM
  IC (TGI): 2.4 µM
[2]; Homo sapiens, HT-29, 48 h
  GI50: 0.481 µM
  CC50: 6.01 µM
  IC (TGI): 1.2 µM

## COCCOCOc1c(OC)c(C)cc2c1[C@H]1N[C@@H](C2)[C@H](C#N)N2C1Cc1c(O)c(C)c3c(c1[C@@H]2CO[Si](c1ccccc1)(c1ccccc1)C(C)(C)C)OCO3 (stereo partly drawn) [compound 6]
[1]; Homo sapiens, A549, 48 h
  GI50: 6.65 µM
  CC50: 12.6 µM
  IC (TGI): 12.6 µM
[2]; Homo sapiens, HT-29, 48 h
  GI50: 12.5 µM
  CC50: 12.6 µM
  IC (TGI): 12.6 µM

## COCCOCOc1c(OC)c(C)cc2c1[C@H]1N[C@@H](C2)[C@H](C#N)N2C1CC1(O)C(=O)C(C)=C3OCOC3=C1[C@@H]2CO[Si](c1ccccc1)(c1ccccc1)C(C)(C)C (stereo partly drawn) [compound 7]
[1]; A549, SRB, 48 hours exposure
  TGI A549: 3.51E−06 Molar
  GI50: 1.87 µM
  CC50: 6.61 µM
[2]; HT29, SRB, 48 hours exposure
  TGI HT29: 2.40E−06 Molar
  GI50: 0.918 µM
  CC50: 5.46 µM

## C=CCN1[C@@H]2c3c(cc(C)c(OC)c3OCOCCOC)C[C@H]1[C@H](C#N)N1C2CC2(O)C(=O)C(C)=C3OCOC3=C2[C@@H]1CO[Si](c1ccccc1)(c1ccccc1)C(C)(C)C (stereo partly drawn) [compound 8]
[1]; Homo sapiens, A549, 48 h
  GI50: 11.8 µM
  CC50: 11.8 µM
  IC (TGI): 11.8 µM
[2]; Homo sapiens, HT-29, 48 h
  GI50: 7.82 µM
  CC50: 11.8 µM
  IC (TGI): 11.8 µM

## C=CCN1[C@@H]2c3c(cc(C)c(OC)c3OCOCCOC)C[C@H]1[C@H](C#N)N1C2CC2(O)C(=O)C(C)=C3OCOC3=C2[C@@H]1CO (stereo partly drawn) [compound 9]
[1]; Homo sapiens, A549, 48 h
  GI50: 16.4 µM
  CC50: 16.4 µM
  IC (TGI): 16.4 µM
[2]; Homo sapiens, HT-29, 48 h
  GI50: 16.4 µM
  CC50: 16.4 µM
  IC (TGI): 16.4 µM
